# Test results: article PMC6934184, “Selective DNA-PKcs inhibition extends the therapeutic index of localized radiotherapy and chemotherapy” (The Journal of Clinical Investigation, 2019)
# Molecular target: T1, BTK (Homo sapiens, UniProt Q06187)
# T1 construct: purchased Thermo Fisher Scientific (Life Technologies) SelectScreen
# Experiment: SelectScreen Z'LYTE
# Assay type: biochemical
# Method in brief: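 Percent values come from Thermo SelectScreen profiling of NU5455, combining activity and binding assays. CSF1R was run in Z'LYTE format at Km app ATP, and CAMK1 in Adapta format with ATP listed at 10.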
# T1 sequence (Q06187 whole entry): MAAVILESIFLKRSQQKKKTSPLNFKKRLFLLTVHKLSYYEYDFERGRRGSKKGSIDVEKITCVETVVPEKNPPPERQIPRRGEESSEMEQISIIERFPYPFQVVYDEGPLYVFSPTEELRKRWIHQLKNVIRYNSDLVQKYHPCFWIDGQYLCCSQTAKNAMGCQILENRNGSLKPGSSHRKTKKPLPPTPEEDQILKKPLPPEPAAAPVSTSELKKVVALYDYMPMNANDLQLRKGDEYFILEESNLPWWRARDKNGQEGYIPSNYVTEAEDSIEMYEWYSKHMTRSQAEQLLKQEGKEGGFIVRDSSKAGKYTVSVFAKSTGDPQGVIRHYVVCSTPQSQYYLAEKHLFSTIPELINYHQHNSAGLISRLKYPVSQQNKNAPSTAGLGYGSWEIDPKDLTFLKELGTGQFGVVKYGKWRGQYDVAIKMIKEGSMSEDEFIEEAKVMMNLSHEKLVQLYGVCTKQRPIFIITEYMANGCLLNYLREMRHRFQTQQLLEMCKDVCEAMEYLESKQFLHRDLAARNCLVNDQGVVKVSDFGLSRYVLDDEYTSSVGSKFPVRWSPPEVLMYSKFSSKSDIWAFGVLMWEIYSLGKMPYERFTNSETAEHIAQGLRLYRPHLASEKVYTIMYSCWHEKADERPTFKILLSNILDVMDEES
compound,measurement,value
CN(C(=O)CN1CCOCC1)c1ccc2sc3c(-c4cccc5c(=O)cc(N6CC7CCC(C6)O7)oc45)cccc3c2c1 [NU5455],inhibition at 1 µM,-2%
